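Method: 48-hour compound exposure of cells in 96-well plates, five concentrations, linear interpolation of endpoints. GI50 = concentration required for 50% inhibition of growth. TGI: total growth inhibition.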

Test systems include A549 NSCLC; HOP-92 NSCLC; NCI-H226 lung; RXF 393 renal; SK-OV-3 ovarian; SN12C renal; SNB-19 CNS; SR leukemia; T-47D breast; UACC-257 melanoma.
Holding throughout (experiment): DTP human tumour cell line panel, 48 h

In general, TGI refers to the concentration at which net growth stops. As for `O=C(O)C1OC(n2cc(F)c(=O)[nH]c2=O)CC1O` (stereo not given), the TGI in the assay with A549 NSCLC is above 100 µM; with HOP-92 NSCLC, above 51.4 µM; in the assay with NCI-H226 lung it was above 100 µM; with RXF 393 renal, above 100 µM; in the assay on SK-OV-3 ovarian, above 100 µM; with SN12C renal, above 100 µM. Besides, the TGI in the assay with SNB-19 CNS, in the assay with SR leukemia, with T-47D breast and with UACC-257 melanoma was above 100 µM each time.

In general, GI50 refers to the concentration at which growth is held to half of that of the control. On to `CCOC(=O)c1c(C)n(Cc2ccc(Cl)cc2Cl)c2c1c(CN(C)C)c(O)c1[nH]cnc12`, for which the GI50 is 15.9 µM in the assay on A549 NSCLC; 2.74 µM with HOP-92 NSCLC; 17.8 µM in the assay with NCI-H226 lung; 14.7 µM with RXF 393 renal; 27.3 µM in the assay with SK-OV-3 ovarian; 15.1 µM with SN12C renal. In addition, the GI50 was 18.4 µM with SNB-19 CNS, 0.557 µM in the assay on SR leukemia, 3.55 µM with T-47D breast and 20.5 µM in the assay on UACC-257 melanoma. Further, the TGI with A549 NSCLC worked out at 32.5 µM; with HOP-92 NSCLC, 13.3 µM; in the assay with NCI-H226 lung it was 33.4 µM; with RXF 393 renal, 28.7 µM; in the assay on SK-OV-3 ovarian it was 43.6 µM; in the assay with SN12C renal, 28.6 µM. The TGI came out at 32.3 µM in the assay with SNB-19 CNS, 4.76 µM in the assay with SR leukemia, 15.2 µM in the assay with T-47D breast and 39.5 µM with UACC-257 melanoma.

Regarding `C=C1C(=O)O[C@H]2[C@H]1CC/C(COC(=O)C(=O)c1cn(Cc3ccccc3)c3ccccc13)=C\CC[C@@]1(C)O[C@@H]21`, the GI50 was 2.13 µM with A549 NSCLC; 1.88 µM with HOP-92 NSCLC; 1.89 µM with RXF 393 renal; 18.9 µM with SK-OV-3 ovarian; 2.3 µM in the assay with SN12C renal; 7.21 µM in the assay on SNB-19 CNS. Besides, the GI50 in the assay with SR leukemia was 1 µM; in the assay with T-47D breast, 2.04 µM; in the assay with UACC-257 melanoma, 2.16 µM. In addition, the TGI in the assay on A549 NSCLC was found to be 6.35 µM; in the assay on HOP-92 NSCLC it was 4.38 µM; with RXF 393 renal, 3.43 µM; with SK-OV-3 ovarian it was 56.7 µM; in the assay on SN12C renal it was 6.03 µM; with SNB-19 CNS, 25.9 µM. Besides, the values for the TGI in the assay on SR leukemia, with T-47D breast and with UACC-257 melanoma were above 100 µM, 4.85 µM and 5.21 µM, respectively.

With `N#C/C(=C1C=C(Br)/C(=N\O)C=C\1Cl)c1cccc2ccccc12`, the TGI came out at 26 µM in the assay with A549 NSCLC; 21.9 µM in the assay on HOP-92 NSCLC; 6.54 µM in the assay with NCI-H226 lung; 4.44 µM with RXF 393 renal; 20.3 µM with SK-OV-3 ovarian; 23.2 µM in the assay with SN12C renal. For the same compound, the TGI in the assay on SNB-19 CNS came to 32.1 µM; in the assay on SR leukemia, 13.8 µM; with T-47D breast, 12.9 µM; in the assay on UACC-257 melanoma, 20.5 µM.

As for `COc1cc(-c2ccc3c(c2)NC(=O)/C3=C\c2ccc[nH]2)ccc1O`, the GI50 with A549 NSCLC was 0.0374 µM; in the assay with HOP-92 NSCLC it was above 24.7 µM; in the assay with NCI-H226 lung, 2.06 µM; in the assay with RXF 393 renal it was 0.0234 µM; in the assay with SK-OV-3 ovarian, 0.0341 µM; with SN12C renal, 0.0423 µM. Further, the GI50 in the assay on SNB-19 CNS is 0.0277 µM; in the assay with SR leukemia, 0.014 µM; with T-47D breast, 0.219 µM. Besides, the TGI in the assay with A549 NSCLC is above 50 µM; in the assay on HOP-92 NSCLC it was above 50 µM; with NCI-H226 lung it was above 50 µM; with RXF 393 renal, 1.66 µM; with SK-OV-3 ovarian it was above 50 µM; in the assay with SN12C renal, above 50 µM. For the same compound, the TGI with SNB-19 CNS is above 50 µM; with SR leukemia, above 30.5 µM; in the assay on T-47D breast, above 50 µM.

With `COc1ccc(Nc2c3ccccc3nc3occc23)cc1`, the GI50 with A549 NSCLC is 3.26 µM; with HOP-92 NSCLC, 7.36 µM; in the assay on NCI-H226 lung, 31.9 µM; in the assay on RXF 393 renal, 1.85 µM; in the assay with SK-OV-3 ovarian it was 2.21 µM; in the assay on SN12C renal, 2.45 µM. For the same compound, the GI50 in the assay with SNB-19 CNS was 2.87 µM; in the assay on SR leukemia it was above 100 µM; in the assay on UACC-257 melanoma it was 9.98 µM. The TGI was 41.6 µM with A549 NSCLC; 31.5 µM in the assay on HOP-92 NSCLC; above 100 µM in the assay with NCI-H226 lung; 17.7 µM in the assay with RXF 393 renal; 14.9 µM with SK-OV-3 ovarian; 23.4 µM in the assay with SN12C renal. For the same compound, the TGI is above 48.5 µM in the assay on SNB-19 CNS, above 100 µM with SR leukemia, above 38.2 µM with T-47D breast and 28.9 µM in the assay with UACC-257 melanoma.

Turning to `CCOC(=O)[C@@H](N)CCC(=O)N[C@@H](CSCc1ccccc1)C(=O)N[C@@H](C(=O)OCC)c1ccccc1`, the GI50 was above 73.2 µM in the assay on A549 NSCLC; 10.9 µM in the assay on HOP-92 NSCLC; 16.4 µM in the assay on NCI-H226 lung; 14.1 µM in the assay with RXF 393 renal; 16.6 µM in the assay on SK-OV-3 ovarian; 18 µM with SN12C renal. The GI50 is 18.8 µM in the assay with SNB-19 CNS, 9.97 µM with SR leukemia, 14.8 µM with T-47D breast and 15.4 µM in the assay with UACC-257 melanoma. Moreover, the TGI in the assay with A549 NSCLC is above 100 µM; in the assay with HOP-92 NSCLC it was 24.2 µM; with NCI-H226 lung, 37.5 µM; in the assay on RXF 393 renal, 27.5 µM; with SK-OV-3 ovarian it was 31.5 µM; with SN12C renal, 34.9 µM. The TGI with SNB-19 CNS stood at 38 µM; in the assay on SR leukemia, 33.2 µM; with T-47D breast, 33.8 µM; in the assay with UACC-257 melanoma, 29.7 µM.

Consider `CC(=O)CSCc1ccccn1`, for which the TGI is above 100 µM in the assay with A549 NSCLC; above 100 µM in the assay on HOP-92 NSCLC; 43.7 µM in the assay on NCI-H226 lung; above 100 µM in the assay with RXF 393 renal; above 100 µM in the assay with SK-OV-3 ovarian; above 100 µM in the assay with SN12C renal. The TGI in the assay on SNB-19 CNS was above 100 µM; with SR leukemia, 56.1 µM; in the assay on T-47D breast it was above 100 µM; in the assay with UACC-257 melanoma, above 100 µM.

Values taken from PubChem BioAssay (NCI).
